Where a name gives a salt, the structure may show the parent alone.

Chain of factor Xa (P00742 235-488 limits assumed): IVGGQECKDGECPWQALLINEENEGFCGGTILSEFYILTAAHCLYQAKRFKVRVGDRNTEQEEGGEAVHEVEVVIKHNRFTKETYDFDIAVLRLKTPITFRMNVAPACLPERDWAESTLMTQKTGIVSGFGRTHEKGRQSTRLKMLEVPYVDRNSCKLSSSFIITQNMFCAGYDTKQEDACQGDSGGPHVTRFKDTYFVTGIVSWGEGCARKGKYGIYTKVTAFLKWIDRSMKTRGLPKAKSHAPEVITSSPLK
Chain of factor Xa (P00742 41-179 partner limits assumed): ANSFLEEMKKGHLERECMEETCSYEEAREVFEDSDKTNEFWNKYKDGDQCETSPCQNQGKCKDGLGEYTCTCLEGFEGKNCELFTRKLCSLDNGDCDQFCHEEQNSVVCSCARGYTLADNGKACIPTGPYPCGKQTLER

The target in the experiment is factor Xa (Homo sapiens, UniProt P00742). Nature of the experiment: In vitro Factor Xa assay (Test 1a), chromogenic substrate S-2765. To be noted: Factor Xa inhibitory activity; Ki from IC50 corrected for substrate competition; 25° C., pH 7.8; read-out: Ki (FXa). The format is biochemical. On the set-up: purchased Enzyme Research Laboratories, Inc; South Bend, Ind. The procedure:
Purified enzymes are used in chromogenic assays. To determine the inhibition constant, the IC50 value is corrected for competition with substrate using the formula: […] where Km is the Michaelis-Menten-constant (Y.-C. Chen and W. H. Prusoff, Biochem. Pharmacol. 22: […] (1973), which is incorporated herein by reference). TBS-PEG buffer (50 mM Tris-Cl, pH 7.8, 200 mM NaCl, 0.05% (w/v) PEG-8000, 0.02% (w/v) NaN3) is used for this assay. The IC50 is determined by combining in appropriate wells of a Costar half-area microtiter plate 25 μl human factor Xa (Enzyme Research Laboratories, Inc.; South Bend, Ind.) in TBS-PEG; 40 μl 10% (v/v) DMSO in TBS-PEG (uninhibited control) or various concentrations of the compound to be tested diluted in 10% (v/v) DMSO in TBS-PEG; and substrate S-2765 (N-benzyloxycarbonyl-[…]-nitroanilide; Kabi Pharmacia, Inc.; Franklin Ohio) in TBS-PEG. […] The initial velocity of chromogenic substrate hydrolysis is measured by the change in absorbance at 405 nm using a Bio-tek Instruments kinetic plate reader ([…] 25° C. during the linear portion of the time course (usually 1.5 min after addition of substrate).
`CN(C)C(=O)C(Cc1ccc(C(=N)NO)cc1)C(=O)N[C@H](C(=O)N[C@@H](CCCNC(=N)N)C(N)=O)C1CCCCC1` (single isomer, unassigned; less polar) [Example 3]: the Ki (commonly a measure of affinity in units of concentration, obtained from inhibition or displacement) turned out to be 156 nM.
For the molecule `C=CCOC(=O)[C@H](CCCNC(=N)N)NC(=O)[C@@H](NC(=O)C(Cc1ccc(C(=N)N)cc1)C(=O)N(C)Cc1ccccc1)C1CCCCC1` (single isomer, unassigned; less polar) [Example 6], the Ki came out at 1 nM.
As for `CC(C)C[C@H](NC(=O)[C@H](CCCNC(=N)N)NC(=O)[C@@H](NC(=O)C(Cc1ccc(N)cc1)C(=O)N(C(C)C)C(C)C)C1CCCCC1)C(=O)N1CCC[C@H]1C(N)=O` (single isomer, unassigned; less polar) [Example 97], the Ki stood at 40 nM.
Take `CCOC(=O)[C@H](CCCNC(=N)N)NC(=O)[C@@H](NC(=O)C(Cc1ccc(C(=N)N)cc1)C(=O)NCc1ccccc1)C1CCCCC1` (single isomer, unassigned; less polar) [Example 136]: the Ki was 10 nM.
Turning to `N=C(N)NCCC[C@H](NC(=O)[C@@H](NC(=O)C(Cc1ccc(C(=N)N)cc1)C(=O)NCc1ccccc1)C1CCCCC1)C(N)=O` (single isomer, unassigned; more polar) [Example 8], the Ki was 35.1 nM.
Turning to `CC(C)C[C@H](NC(=O)[C@H](Cc1ccc[n+](C)c1)NC(=O)[C@@H](NC(=O)C(Cc1ccc(C(=N)N)cc1)C(=O)N(C(C)C)C(C)C)C1CCCCC1)C(=O)N1CCC[C@H]1C(N)=O` (single isomer, unassigned; more polar) [Example 94], the Ki amounted to 1700 nM.
With `CN(C)C(=O)C(Cc1ccc(C(=N)N)cc1)C(=O)N[C@H](C(=O)N(CC(N)=O)Cc1ccncc1)C1CCCCC1` (single isomer, unassigned; more polar) [Example 104] the figure was 6500 nM.
As for `N=C(N)NCCC[C@H](NC(=O)[C@@H](NC(=O)C(Cc1ccc(C(=N)NO)cc1)C(=O)NCc1ccccc1)C1CCCCC1)C(N)=O` (single isomer, unassigned; more polar) [Example 129], the Ki was found to be 360 nM.
In the case of `CN(C)C(=O)C(Cc1ccc(C(=N)N)cc1)C(=O)N1Cc2ccccc2C[C@H]1C(=O)N[C@@H](CCCNC(=N)N)C(N)=O` (stereo partly drawn) [Example 10, 2-[3-(4-Carbamimidoyl-phenyl)-2-dimethylcarbamoyl-propionyl]-1,2,3,4-tetrahydro-isoquinoline-3-(S)-carboxylic acid (1-(S)-carbamoyl-4-guanidino-butyl)-amide trifluoroacetic acid salt], the Ki was 604 nM.
Take `N=C(N)NCCC[C@H](NC(=O)[C@@H](NC(=O)C(Cc1ccc(C(=N)NO)cc1)C(=O)NCc1ccccc1)C1CCCCC1)C(N)=O` (stereo partly drawn) [Example 14, N-Benzyl-N′-[(S)-(1-(S)-carbamoyl-4-guanidino-butylcarbamoyl)-cyclohexyl-methyl]-2-[4-(N-hydroxycarbamimidoyl)-benzyl]-malonamide trifluoroacetic acid salt]: the Ki came out at 21.8 nM.
Regarding `C=CCNC(=O)C(Cc1ccc(C(=N)N)cc1)C(=O)N[C@@H](Cc1ccc(N)cc1)C(=O)N[C@@H](CCCNC(=N)N)C(N)=O` (stereo partly drawn) [Example 17, N-Allyl-N′-[2-(4-amino-phenyl)-1-(S)-(1-(S)-carbamoyl-4-guanidino-butylcarbamoyl)-ethyl]-2-(4-carbamimidoyl-benzyl)-malonamide trifluoroacetic acid salt], the Ki amounted to 2290 nM.
Consider `CCC(C)[C@@H](C(=O)N[C@@H](CCCNC(=N)N)C(N)=O)N(C)C(=O)C(Cc1ccc(C(=N)N)cc1)C(=O)Nc1ccccc1` (stereo partly drawn) [Example 21, 2-(4-Carbamimidoyl-benzyl)-N-[1-(S)-(1-(S)-carbamoyl-4-guanidino-butylcarbamoyl)-2-methyl-butyl]-N-methyl-N′-phenyl-malonamide trifluoroacetic acid salt], for which the Ki was 8370 nM.
For the molecule `CCCC[C@H](NC(=O)C(Cc1ccc(C(=N)N)cc1)C(=O)NC)C(=O)N[C@@H](CCCNC(=N)N)C(N)=O` (stereo partly drawn) [Example 28, 2-(4-Carbamimidoyl-benzyl)-N-[1-(S)-(1-(S)-carbamoyl-4-guanidino-butylcarbamoyl)-pentyl]-N′-methyl-malonamide trifluoroacetic acid salt], the Ki amounted to 47 nM.
In the case of `CCCC[C@H](NC(=O)C(Cc1ccc(C(=N)N)cc1)C(=O)Nc1ccccc1)C(=O)N[C@@H](CCCNC(=N)N)C(N)=O` (stereo partly drawn) [Example 30, 2-(4-Carbamimidoyl-benzyl)-N-[1-(S)-(1-(S)-carbamoyl-4-guanidino-butylcarbamoyl)-pentyl]-N′-phenyl-malonamide trifluoroactic acid salt], the Ki was found to be 153 nM.
Take `N=C(N)NCCC[C@H](NC(=O)[C@H](Cc1ccc2ccccc2c1)NC(=O)C(Cc1ccc(C(=N)N)cc1)C(=O)Nc1ccccc1)C(N)=O` (stereo partly drawn) [Example 38, 2-(4-Carbamimidoyl-benzyl)-N-[1-(S)-(1-(S)-carbamoyl-4-guanidino-butylcarbamoyl)-2-naphthalen-2-yl-ethyl]-N′-phenyl-malonamide trifluoroacetic acid]: the Ki was found to be 1100 nM.
As for `CN(C)C(=O)C(Cc1ccc(C(=N)N)cc1)C(=O)N[C@@H](CCc1ccccc1)C(=O)N[C@@H](CCCNC(=N)N)C(N)=O` (stereo partly drawn) [Example 40, 2-(4-Carbamimidoyl-benzyl)-N-[1-(S)-(1-(S)-carbamoyl-4-guanidino-butylcarbamoyl)-3-phenyl-propyl]-N′,N′-dimethyl-malonamide trifluoroacetic acid salt], the Ki was 10.7 nM.
For `C=CCNC(=O)C(Cc1ccc(C(=N)N)cc1)C(=O)N[C@@H](CCCN)C(=O)N[C@@H](CCCNC(=N)N)C(N)=O` (stereo partly drawn) [Example 45, N-Allyl-N′-[4-amino-1-(S)-(1-(S)-carbamoyl-4-guanidino-butylcarbamoyl)-butyl]-2-(4-carbamimidoyl-benzyl)-malonamide trifluoroacetic acid salt], the Ki is 26500 nM.
With `N=C(N)NCCC[C@H](NC(=O)[C@H](CO)NC(=O)C(Cc1ccc(C(=N)N)cc1)C(=O)Nc1ccccc1)C(N)=O` (stereo partly drawn) [Example 54, 2-(4-Carbamimidoyl-benzyl)-N-[1-(S)-(1-(S)-carbamoyl-4-guanidino-butylcarbamoyl)-2-hydroxy-ethyl]-N′-phenyl-malonamide trifluoroacetic acid salt] the figure was 3010 nM; with `CN(C)C(=O)C(Cc1ccc(C(=N)N)cc1)C(=O)N[C@H](C(=O)N[C@@H](CCCNC(=N)N)C(N)=O)c1ccccc1` (stereo partly drawn) [Example 56, 2-(4-Carbamimidoyl-benzyl)-N-[(S)-(1-(S)-carbamoyl-4-guanidino-butylcarbamoyl)-phenyl-methyl]-N′,N′-dimethyl-malonamide trifluoroacetic acid salt], 2.1 nM.
`N=C(N)NCCC[C@H](NC(=O)[C@@H](NC(=O)C(Cc1ccc(C(=N)N)cc1)C(=O)Nc1ccccc1)c1ccccc1)C(N)=O` (stereo partly drawn) [Example 58, 2-(4-Carbamimidoyl-benzyl)-N-[(S)-(1-(S)-carbamoyl-4-guanidino-butylcarbamoyl)-phenyl-methyl]-N′-phenyl-malonamide trifluoroacetic acid salt]: the Ki is 57.5 nM.
On to `C=CCNC(=O)C(Cc1ccc(C(=N)N)cc1)C(=O)N[C@@H](COCc1ccccc1)C(=O)N[C@@H](CCCNC(=N)N)C(N)=O` (stereo partly drawn) [Example 61, N-Allyl-N′-[2-benzyloxy-1-(S)-(1-(S)-carbamoyl-4-guanidino-butylcarbamoyl)-ethyl]-2-(4-carbamimidoyl-benzyl)-malonamide trifluoroacetic acid salt], for which the Ki turned out to be 957 nM.
With `CN(C)C(=O)C(Cc1ccc(C(=N)N)cc1)C(=O)N[C@@H](CCC(=O)O)C(=O)N[C@@H](CCCNC(=N)N)C(=O)N[C@@H](CC1CCCCC1)C(N)=O` (stereo partly drawn) [Example 69, 4-(S)-[3-(4-Carbamimidoyl-phenyl)-2-dimethylcarbamoyl-propionylamino]-4-[1-(S)-(1-(S)-carbamoyl-2-cyclohexyl-ethylcarbamoyl)-4-guanidino-butylcarbamoyl]-butyric acid trifluoroacetic acid salt] the figure was 285 nM.
For the molecule `CCCC[C@@H](NC(=O)C(Cc1ccc(C(=N)N)cc1)C(=O)N(C)C)C(=O)N[C@@H](CCCNC(=N)N)C(=O)O` (stereo partly drawn) [Example 72, 2-(S)-{2-(R)-[3-(4-Carbamimidoyl-phenyl)-2-dimethylcarbamoyl-propionylamino]-hexanoylamino}-5-guanidino-pentanoic acid trifluoroacetic acid salt], the Ki stood at 4300 nM.
Consider `N=C(N)NCCC[C@H](NC(=O)[C@@H](NC(=O)C(Cc1ccc(C(=N)N)cc1)C(=O)NCc1ccccc1)C1CCCCC1)C(=O)O` (stereo partly drawn) [Example 82, 2-(S)-{2-(S)-[2-Benzylcarbamoyl-3-(4-carbamimidoyl-phenyl)-propionylamino]-2-cyclohexyl-acetylamino}-5-guanidino-pentanoic acid trifluoroacetic acid salt], for which the Ki was found to be 39.3 nM.
On to `C=CCNC(=O)C(Cc1ccc(C(=N)N)cc1)C(=O)N[C@@H](CCC(=O)O)C(=O)N[C@@H](CCCNC(=N)N)C(=O)N[C@@H](CC1CCCCC1)C(N)=O` (stereo partly drawn) [Example 89, 4-(S)-[2-Allylcarbamoyl-3-(4-carbamimidoyl-phenyl)-propionylamino]-4-[1-(S)-(1-(S)-carbamoyl-2-cyclohexyl-ethylcarbamoyl)-4-guanidino-butylcarbamoyl]-butyric acid trifluoroacetic acid salt], for which the Ki is 6480 nM.

The values above are taken from US6794365B2, “Malonic acid derivatives, processes for their preparation their use and pharmaceutical compositions containing them” (Aventis Pharma Deutschland GmbH, priority 2000, dated 2004).
